Consider one compound from patent publication US20040229791A1, “Compositions and methods of modulating TGF-beta activity by fatty acids” (priority 2002, published 2004).

Structures are written as SMILES.

The assay concerns the target T1, TGF-β2-α2M* complex (Homo sapiens, UniProt P01023).
T1 construct: was purified from pooled citrate-treate human plasma; from tissue; host or cells: pooled citrate-treated human plasma
T1 sequence (P01023 24-1474): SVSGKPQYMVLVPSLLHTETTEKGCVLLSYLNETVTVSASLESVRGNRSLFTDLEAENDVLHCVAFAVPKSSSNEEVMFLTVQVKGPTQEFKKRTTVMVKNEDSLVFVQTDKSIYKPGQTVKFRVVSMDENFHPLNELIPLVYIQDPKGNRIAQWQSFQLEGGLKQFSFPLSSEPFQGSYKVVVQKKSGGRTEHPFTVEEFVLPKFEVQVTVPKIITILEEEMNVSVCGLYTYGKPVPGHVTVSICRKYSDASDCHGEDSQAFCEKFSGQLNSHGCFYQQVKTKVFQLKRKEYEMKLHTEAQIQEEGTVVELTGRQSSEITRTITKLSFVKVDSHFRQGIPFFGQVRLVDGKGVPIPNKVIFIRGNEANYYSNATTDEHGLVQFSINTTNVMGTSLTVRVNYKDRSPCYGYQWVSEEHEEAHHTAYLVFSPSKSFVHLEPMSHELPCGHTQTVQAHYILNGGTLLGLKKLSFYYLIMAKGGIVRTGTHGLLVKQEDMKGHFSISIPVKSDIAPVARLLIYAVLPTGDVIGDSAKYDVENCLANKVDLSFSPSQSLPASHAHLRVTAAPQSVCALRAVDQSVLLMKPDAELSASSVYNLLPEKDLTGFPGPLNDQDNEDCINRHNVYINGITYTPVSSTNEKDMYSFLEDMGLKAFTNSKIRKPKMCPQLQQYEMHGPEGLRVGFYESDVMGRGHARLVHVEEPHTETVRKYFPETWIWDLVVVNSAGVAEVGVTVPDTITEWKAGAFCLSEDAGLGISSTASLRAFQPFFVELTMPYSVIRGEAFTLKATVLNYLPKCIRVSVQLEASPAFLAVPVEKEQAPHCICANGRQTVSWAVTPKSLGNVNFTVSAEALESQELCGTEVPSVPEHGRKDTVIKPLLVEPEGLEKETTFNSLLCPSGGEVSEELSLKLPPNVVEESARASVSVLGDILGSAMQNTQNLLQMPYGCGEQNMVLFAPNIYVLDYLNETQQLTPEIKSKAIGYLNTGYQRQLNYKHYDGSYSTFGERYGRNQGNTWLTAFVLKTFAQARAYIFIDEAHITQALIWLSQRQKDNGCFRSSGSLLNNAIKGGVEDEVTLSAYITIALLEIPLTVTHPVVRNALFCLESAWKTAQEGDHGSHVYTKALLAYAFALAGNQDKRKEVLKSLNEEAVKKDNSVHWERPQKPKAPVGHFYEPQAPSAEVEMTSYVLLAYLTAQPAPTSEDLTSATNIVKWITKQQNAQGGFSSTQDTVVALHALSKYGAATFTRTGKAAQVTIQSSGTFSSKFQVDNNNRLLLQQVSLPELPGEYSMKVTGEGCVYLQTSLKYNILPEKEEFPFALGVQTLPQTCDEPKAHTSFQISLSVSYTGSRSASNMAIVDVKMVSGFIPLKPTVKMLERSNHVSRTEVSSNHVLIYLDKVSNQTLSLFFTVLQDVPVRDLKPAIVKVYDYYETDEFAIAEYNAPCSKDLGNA
The experiment in a line: Inhibition of 125I-TGF-β2 and α2M* complex formation (5% non-denaturing PAGE). In kind it is binding. Conditions: 50% inhibition; read-out: concentration that inhibited 50% of the complex formation of α2M* and 125I-TGF-β2. Here is the method:
TGF- ? isoforms bind to α2M* with different affinities: TGF ? β2>TGF ? β1 ( active sites of TGF ? β1 and TGF- ? 2 responsible for high-affinity binding to ? 2M* are disti from the low-affinity ? 2M* binding site in TGF- ? 3 (19). To determine if fatty acids differentially affect the binding of TGF- ? isoforms to ? 2M*, the effects of various concentrations of arachidonic acid and myristic acid on complex formation of ^125I-labeled TGF ? β isoforms and ? 2M were determined*. […] It inhibited 30% of the complex form . α2M* and TGF ? β2 and TGF ? β3 at 100 and >250 μM, respectively. Arachidon polyunsaturated fatty acid, was a stronger inhibitor of complex formation of ? 2M* and TGF-.β2/TGF ? β3. It inhibited 50% of the complex formation of ? 2M* and ^125I-TGF- ? 2 at 50 μM (FIG. 3A). The observation that myristic acid and arachidonic acid inhibited complex formation of ^125I-TGF- ? […] 2M* complexes in the reaction mixtures were then analyzed by 7.5% SDS-PAGE and autoradiography.
Complex formation of ^125I-TGF-β and ? […] After 30 min at room temperature, the complex formation of ^125I-TGF- ? and. α2M* was determined by 5% non-denaturing polyacrylamide gel electrophoresis (PAGE) or by 7.5% SDS-PAGE following cross-linking by 0.6 mM DSS. After electrophoresis, the gel was stained with Coomassie blue and analyzed by autoradiography. […] 2M* was quantified using a PhosphoImager (Fuji).

On to `CCCCC/C=C\C/C=C\C/C=C\C/C=C\CCCC(=O)O` [arachidonic acid], for which the IC50 came to 50 µM.
